Values of other authors as cited in patent US4239780A, “Phospholipase A2 inhibition” (The Upjohn Company, priority 1979, dated 1980).

Test system: phospholipase A2 from venom of Russel Viper
Settings: enzyme from Russel Viper venom; cited from earlier work

COc1ccc2c(c1)c(CC(=O)O)c(C)n2C(=O)c1ccc(Cl)cc1 [indomethacin, Indomethacin]
inhibition of phospholipase A2: inactive
